Experimental data published in patent US6413931B1, “Peptide inhibitor of fibrinogen blood clotting” (The Texas A&M University System, priority 1999, dated 2002).

Tests used:
[1] = molecular target: T1, Human Fibrinogen/Bovine Thrombin (Homo sapiens, UniProt P02671+P02675+P02679); experiment: Clotting assay (fibrinogen plus thrombin, time to gel-like clot); assay type: biochemical; conditions: for Human Fibrinogen/Bovine Thrombin Clotting Time: 1 mg/ml fibrinogen, 1 unit/ml thrombin
T1 construct: purchased Chromogenix (Sweden)
T1 sequence (P02671 20-629 limits assumed): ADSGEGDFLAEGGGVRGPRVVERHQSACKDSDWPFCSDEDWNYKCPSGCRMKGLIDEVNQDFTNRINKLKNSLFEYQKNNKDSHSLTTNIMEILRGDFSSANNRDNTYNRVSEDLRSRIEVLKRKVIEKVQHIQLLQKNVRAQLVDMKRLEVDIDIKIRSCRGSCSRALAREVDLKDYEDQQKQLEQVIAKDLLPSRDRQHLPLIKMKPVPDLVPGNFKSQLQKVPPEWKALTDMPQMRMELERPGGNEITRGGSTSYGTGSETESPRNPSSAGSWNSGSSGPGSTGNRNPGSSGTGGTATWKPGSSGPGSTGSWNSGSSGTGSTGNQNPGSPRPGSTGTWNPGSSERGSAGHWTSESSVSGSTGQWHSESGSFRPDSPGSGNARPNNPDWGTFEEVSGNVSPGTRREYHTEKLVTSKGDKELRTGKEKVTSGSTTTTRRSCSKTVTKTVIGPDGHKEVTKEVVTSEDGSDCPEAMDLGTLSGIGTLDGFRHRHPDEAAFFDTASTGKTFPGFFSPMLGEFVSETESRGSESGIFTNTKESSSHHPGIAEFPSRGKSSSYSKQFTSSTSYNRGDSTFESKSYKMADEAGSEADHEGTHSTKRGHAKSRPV
T1 sequence (P02675 31-491): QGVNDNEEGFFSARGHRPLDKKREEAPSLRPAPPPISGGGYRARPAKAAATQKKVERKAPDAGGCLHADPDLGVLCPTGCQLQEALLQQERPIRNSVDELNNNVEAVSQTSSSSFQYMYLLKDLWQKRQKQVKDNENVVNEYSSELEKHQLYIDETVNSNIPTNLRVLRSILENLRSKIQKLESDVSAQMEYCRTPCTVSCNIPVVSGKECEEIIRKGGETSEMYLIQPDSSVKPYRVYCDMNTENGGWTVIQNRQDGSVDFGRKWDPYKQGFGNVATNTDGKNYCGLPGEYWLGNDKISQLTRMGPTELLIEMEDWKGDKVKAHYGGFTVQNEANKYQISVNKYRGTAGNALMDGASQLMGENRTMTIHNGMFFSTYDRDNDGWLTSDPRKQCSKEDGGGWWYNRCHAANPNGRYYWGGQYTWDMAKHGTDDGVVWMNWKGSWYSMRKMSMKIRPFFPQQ
T1 sequence (P02679 27-433 limits assumed): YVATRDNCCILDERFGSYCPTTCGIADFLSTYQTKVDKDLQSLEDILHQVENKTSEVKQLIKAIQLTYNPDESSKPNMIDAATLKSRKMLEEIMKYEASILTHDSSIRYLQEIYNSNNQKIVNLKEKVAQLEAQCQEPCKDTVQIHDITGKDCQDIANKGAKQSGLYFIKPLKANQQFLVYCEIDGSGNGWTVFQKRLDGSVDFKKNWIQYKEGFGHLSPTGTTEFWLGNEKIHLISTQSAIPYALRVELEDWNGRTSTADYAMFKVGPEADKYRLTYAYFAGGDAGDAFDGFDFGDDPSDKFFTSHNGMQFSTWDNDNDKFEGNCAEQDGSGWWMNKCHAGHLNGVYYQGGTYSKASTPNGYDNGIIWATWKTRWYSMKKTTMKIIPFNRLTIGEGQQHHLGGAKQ
Protocol: These tests were conducted by incubating 1 mg of human fibrinogen with desired peptides in 20 mM Tris-HCl, 150 mM NaCl, pH 7.5 in the presence or absence of Zn^2+ for at least 30 min followed by adding 1 unit of bovine thrombin. The total volume of each reaction was 1 ml and the reaction was observed by counting the time for allowing the solution to form a gel like clot in the test tube.
A four amino acid long peptide, G-P-R-P, binds to the γ chain of fibrinogen D fragment and prolongs the clotting time in a closed system containing fibrinogen and thrombin (Laudano, 1978; Laudano, 1980).

fibrinogen D fragment = molecular target: T2, fibrinogen D fragment (Homo sapiens, UniProt P02671+P02675+P02679, DEL434-453); conditions: Laudano, 1978; read-out: reported binding affinity KD to fibrinogen D fragment; cited from earlier work
T2 construct: G-P-R-P peptide to fibrinogen D fragment
T2 sequence (P02671 130-216 limits assumed): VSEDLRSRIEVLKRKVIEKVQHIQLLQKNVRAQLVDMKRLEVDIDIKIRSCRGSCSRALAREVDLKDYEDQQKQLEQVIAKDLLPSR
T2 sequence (P02675 164-491 limits assumed): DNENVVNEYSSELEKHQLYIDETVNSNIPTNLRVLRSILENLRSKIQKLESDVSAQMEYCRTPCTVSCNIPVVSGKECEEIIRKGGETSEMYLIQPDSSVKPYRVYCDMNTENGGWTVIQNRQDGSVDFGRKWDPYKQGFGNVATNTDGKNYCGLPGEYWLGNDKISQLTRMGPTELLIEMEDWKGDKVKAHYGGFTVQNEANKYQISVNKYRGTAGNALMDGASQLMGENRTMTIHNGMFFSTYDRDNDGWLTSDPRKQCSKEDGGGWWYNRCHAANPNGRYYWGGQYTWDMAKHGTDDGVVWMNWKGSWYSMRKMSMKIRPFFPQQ
T2 sequence (P02679 112-433 limits assumed): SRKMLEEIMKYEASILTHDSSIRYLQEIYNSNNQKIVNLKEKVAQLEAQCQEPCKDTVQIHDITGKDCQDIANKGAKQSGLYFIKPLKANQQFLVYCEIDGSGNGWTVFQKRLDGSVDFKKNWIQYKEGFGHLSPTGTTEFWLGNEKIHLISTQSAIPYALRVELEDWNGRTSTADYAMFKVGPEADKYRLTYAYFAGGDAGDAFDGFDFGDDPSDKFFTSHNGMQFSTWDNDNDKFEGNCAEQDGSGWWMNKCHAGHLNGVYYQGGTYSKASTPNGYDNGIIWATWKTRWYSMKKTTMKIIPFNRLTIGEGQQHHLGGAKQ

fibrinogen D fragments = molecular target: T3, fibrinogen D fragments (Homo sapiens, UniProt P02671+P02675+P02679, DEL434-453); experiment: Inhibition binding assay: competition with MBP-MD4 for binding to fibrinogen D fragments
T3 construct: Fibrinogen D and E fragment were purchased from Calbiochem; purchased Calbiochem (La Jolla, Calif.)
T3 sequence (P02671 130-216 limits assumed): T2 sequence (P02671 130-216 limits assumed)
T3 sequence (P02675 164-491 limits assumed): T2 sequence (P02675 164-491 limits assumed)
T3 sequence (P02679 112-433 limits assumed): T2 sequence (P02679 112-433 limits assumed)
Protocol: FIG. 8. Competitive binding of MD4 peptide in the interaction of MBP-MD4 to fibrinogen D fragments.
The protocol was based on the enzyme-linked immunosorbant binding assay as described above. However, the inhibitors were mixed with biotin labeled protein and allowed to bind to coated molecules in microtiter wells and incubated for 1 h at room temperature.
To measure the binding affinity of MD4 peptide to fibrinogen D fragments, fluorescence polarization experiments were carried out by incubating fluorescein labeled MD4 peptide with increasing concentration of fibrinogen D fragments and observing the change of polarization. The binding affinity of isolated MD4 peptide to fibrinogen D fragments in the presence of 15 uM ZnCl2 was saturable and the apparent dissociation constant, KD, was (8.4±1.6)×10^−8 M (FIG. 7). Competitive binding to D fragment was compared for a four amino acid peptide, G-P-R-P which is known to bind to fibrinogen γ chain (Pratt, 1997) and to prevent fibrinogen from forming fibrin (Laudano, 1978; Laudano, 1980), reduced and alkylated MD4, unlabeled MD4 peptide, and MBP-MD4. […] MD4 peptide binds to fibrinogen α and β chains in Western ligand binding assays whereas G-P-R-P peptide binds to the γ chain of fibrinogen, therefore, both peptides bound to different sites in D fragment.

Molecule | Human Fibrinogen/Bovine Thrombin Clotting Time ([1]; 1 mM EDTA) [min] | Kd (fibrinogen D fragment) [µM] | competition with MBP-MD4 for binding to fibrinogen D fragments (fibrinogen D fragments) | delay of clot formation ([1]; 100 uM peptide, fibrinogen and thrombin, 15 uM ZnCl2) [min] | Human Fibrinogen/Bovine Thrombin Clotting Time ([1]; peptide 0.1 mM, 20 mM Tris, 150 mM NaCl, 15 μM ZnCl2, pH 7.4) [min]
O=C(O)CN(CCN(CC(=O)O)CC(=O)O)CC(=O)O [EDTA] | 12 |  |  |  | 
G-P-R-P |  | 17 | Neither G-P-R-P peptide, nor reduced and alkylated MD4 peptide could inhibit | 10 | 10
